Assay results: patent US8217071B2, “Use of inhibitors of the degradation of p27, in particular Argyrin and derivatives thereof, for the treatment of proliferative diseases” (Helmholtz Zentrum für Infektionsforschung GmbH, priority 2007, dated 2012)
Numbered stars: 1 amine (or outer) side, 2 acyl side, 3 side chain; on linkers, the order of the positions; unused ones are H or OH. Square brackets hold non-standard residues; d marks the D form. Peptide text beside a SMILES is read from it. dAla(ψthiazole) = C[C@@H](N[*:1])c1nc(C(=O)[*:2])cs1; Trp(4-OMe) = COc1cccc2[nH]cc(C[C@H](N)C(=O)O)c12; Dha = C=C(N)C(=O)O; Sar = CNCC(=O)O

Assays:
[1] = system: p27-GFP (clone H15GFP-p27, HeLa-cell line; cervix-carcinoma); assay: GFP-fluorescence per FACS in clone H15GFP-p27; format: cell-based, human; details: GFP-fluorescence per FACS after 24 h incubation, 500 ng/ml
From the text: Human p27cDNA (in plasmid vector CS2+) was digested with EcoR1 and BamH1, and the resulting fragment was ligated after gel purification into the vector pEGFP-N1 (Clontech) that was cut with the same restriction enzymes. Thus, a […] fusion with the GFP as contained in the pEGFP-vector was generated. The plasmid was then transfected into Hela cells, and, following selection of the cells with kanamycin, cellular clones were isolated which had the plasmid integrated stably into their chromosome. The expression of the p27EGFP proteins was confirmed using Western blots and immune precipitations for both p27 and GFP.
The following table summarizes the effects of argyrin-derivatives A to H on two cancer cell lines, H15 (cervix carcinoma) and SW-480 (colon cancer). In order to test the efficacy, a p27-GFP-clone was used.

[2] = system: SW-480 (colon cancer cell line); assay: MTT-test proliferation of SW-480; format: cell-based, human; details: half-maximal inhibition of proliferation
Experimental: (§1) MTT assays were done as previously described (Sasse, F. et al. Argyrins, immunosuppressive cyclic peptides from myxobacteria. I. Production, isolation, physico-chemical and biological properties. J Antibiot (Tokyo) 55, 543-51 (2002)). TUNEL staining of tissue sections was performed on 10 micrometer sections which were deparafinised and treated as recommended by the manufacturer. (In Situ Cell Death Detection Kit, Fluorescein; ROCHE, Cat #11 684 795 910). Flow cytometric analysis of cultured cells was done using a Becton Dickinson fluorescence cytometer as previously described (Malek, N. P. et al. A mouse knock-in model exposes sequential proteolytic pathways that regulate p27^Kip1 in G1 and S phase. Nature 413, 323-7 (2001)). Analysis of the distribution of cells in the cell cycle and the sub-G1 fraction was done using Cell Quest software. A histone-associated-DNA-fragments ELISA was used to determine the number of apoptotic cells according to manufacturers instructions (Roche #11 774425001).

[3] = system: p27^kip1-GFP fusion protein in HeLa cells; assay: High throughput screen for p27 stabilizing substances; format: cell-based, human; details: 70 nM
From the text: To identify substances which lead to an increase in the expression levels of p27^kip1 the inventors generated a cell based high throughput assay system (see materials and methods for details). […] As shown by flow cytometry, Argyrin A exerted two different cellular phenotypes at ranges of IC50. […] The apoptosis inducing activity of Argyrin A was confirmed by measuring DNA fragmentation using a histone fragmentation ELISA (FIG. 5B).
A cellular high throughput screen for p27 stabilizing compounds was established by stably introducing a DNA plasmid (EGFP-N1, Clontech) which allows the expression of p27^kip1-GFP fusion protein in HeLa cells. p27-GFP expressing cells were selected with neomycin and several independent clones were subcultured. HeLa p27-GFP cells were seeded in 384 well plates (Corning) and incubated with a set of highly diverse natural products (part of the Helmholtz Center for Infection Research myxobacterial metabolite collection) at a concentration of 70 nM. GFP emission was determined by fluorometric measurements using a Victor 1420 multilabel counter (Perkin Elmer) at 3 h, 24 h, 48 h and 60 h after the start of treatment. The proteasome inhibitor MG132 was used as a positive control.

[4] = system: primary human fibroblasts; assay: Flow cytometry cell cycle / sub-G1 analysis; format: cell-based; details: at ranges of IC50
Experimental: (§2) The expression levels of p27^kip1 were determined at the indicated timepoints by western blotting and normalized against actin expression which was used as an internal control.
as §1

p27^kip1 = p27^kip1 expression time course by western blotting; format: cell-based, human; details: SW480, HCT116 and HeLa cells
Experimental: as §2
(§3) Immunohistochemical staining of mouse tumour tissue, western Blotting and immunofluorescence experiments were done as previously described (Timmerbeul, I. et al. Testing the importance of p27 degradation by the SCFskp2 pathway in murine models of lung and colon cancer. Proc Natl Acad Sci USA 103, 14009-14 (2006). Kossatz, U. et al. C-terminal phosphorylation controls the stability and function of p27^kip1. Embo J 25, 5159-70 (2006).). The following antibodies were used: p27 (Cat. No. K25020-150; Transduction Labs), p21 (N20; Santa Cruz), p53 (FL-393; Santa Cruz), NfKB (C-20; Santa Cruz), Bax (P-19; Santa Cruz), Alexa fluor 488 (# A11001; Invitrogen), 20S-proteasome subunit beta 2 (Z) (PW9300; Bio-mol, for human cells), 20S-proteasome subunit beta 2 (Z) (PW8145; BIO TREND, for mouse cells); 20S proteasome subunit beta 1(Y) (PW8140; BIO TREND), 20S proteasome subunit beta 5 (PW8895; BIO TREND); PECAM Antibody clone MEC 13.3 (#550274; BD Pharmingen).

p53, p21, BAX and NfκB = assay: Accumulation of proteasome substrates by western blotting; format: cell-based, human; details: SW480 and HCT116 cell lines
Experimental: as §2, §3

## C=C1NC(=O)[C@@H](C)NC(=O)CNC(=O)[C@H](Cc2c[nH]c3cccc(OC)c23)NC(=O)[C@H](Cc2c[nH]c3ccccc23)NC(=O)c2csc(n2)[C@@H](C)NC(=O)CN(C)C1=O [Argyrin A] (cyclo(W[Trp(4-OMe)]G[dA][Dha][Sar][dAla(ψthiazole)]))
[1]
  Mean of FSC-H (Log) H15 p27-GFP-clone: 8.52
[2]
  IC-50 SW-480: Ca. 0.05 μg/ml
[3]
  increase in fluorescence (p27-GFP): strongest increase in fluorescence
[4]
  cellular phenotype: stopped to proliferate
p27^kip1
  cellular p27^kip1 levels: increase
p53, p21, BAX and NfκB
  levels of proteasome substrates p53, p21, BAX and NfκB: accumulated
